*1 amine or outer side, *2 acyl side, *3 side chain or, on linkers, in order; H or OH if unused. Where a SMILES comes first, the peptide text is derived from it. Side-chain parts run from the residue outwards. [ ]: non-standard residue; d: D form. The star is where a group is joined. Ethylenediamine = C(CN[*:2])N[*:1]; Hyp = O=C(O)[CH]1C[CH](O)CN1; Phg = N[CH](C(=O)O)c1ccccc1; CO = O=C([*:1])[*:2]; Bn = c1ccc(C*)cc1
Test system: Liver left lateral lobe
Test: Microarray gene expression profiling (HG-U95A), liver
Format: in vivo, cynomolgus monkeys
Experimental: Origin of tissue and processing. Male and female cynomolgus monkeys received subcutaneously pasireotide (100 μg/animal/day) or the vehicle for 14 days. On day 15, all animals were sacrificed and tissues for RNA extraction were immediately snap-frozen and kept at −80° C. until processing.
RNA expression profiling was conducted by means of the HG-U95A gene expression probe array (Affymetrix; Santa Clara, Calif. USA), containing more than 12,600 probe sets interrogating primarily full-length human genes and also some control probe sets. The experiment was conducted according to the recommendations of the manufacturer. Briefly, total RNA was obtained by acid guanidinium thiocyanate-phenol-chloroform extraction (Trizol®, Invitrogen Life Technologies, San Diego, Calif. USA) from each frozen tissue section. The total RNA was then purified on an affinity resin (Rneasy®, Qiagen) and quantified. Double stranded cDNA was synthesized with a starting amount of approximately 5 μg full-length total RNA using the Superscript® Choice System (Invitrogen Life Technologies, Carlsbad, Calif. USA) in the presence of a T7-(dT)24 DNA oligonucleotide primer. Following synthesis, the cDNA was purified by phenol/chloroform/isoamyl alcohol extraction and ethanol precipitation. The purified cDNA was then transcribed in vitro using the BioArray® High Yield RNA Transcript Labeling Kit (ENZO, Farmingdale, N.Y. USA) in the presence of biotinylated ribonucleotides form biotin labelled cRNA. The labelled cRNA was then purified on an affinity resin (Rneasy®, Qiagen), quantified and fragmented. An amount of approximately 10 μg labelled cRNA was hybridized for 16 hours at 45° C. to an expression probe array. The array was then washed and stained twice with streptavidin-phycoerythrin (Molecular Probes,) using the GeneChip® Fluidics Workstation 400 (Affymetrix, Santa Clara, Calif. USA). The array was then scanned twice using a confocal laser scanner (GeneArray® Scanner, Agilent, Palo Alto, Calif. USA) resulting in one scanned image. This resulting “.dat-file” was processed using the MAS4 program (Affymetrix) into a “.cel-file”. The “.cel file” was captured and loaded into the Affymetrix GeneChip® Laboratory Information Management System (LIMS). The LIMS database is connected to a UNIX Sun Solaris server through a network filing system that allows for the average intensities for all probes cells (CEL file) to be downloaded into an Oracle database (NPGN). Raw data was converted to expression levels using a “target intensity” of 150. The data were evaluated for quality control and loaded in the GeneSpring® software 4.2.4 (Silicon Genetics, Calif. USA) for analysis.
On the human Affymetrix HGU95Av2 chip, probe sets for individual genes contain 20 oligonucleotide pairs, each composed of a “perfect match” 25-mer and a “mismatch” 25-mer differing from the “perfect” match oligonucleotide at a single base. After probe labelling, hybridization, and laser scanning, the expression level was estimated by averaging the differences in signal intensity measured by oligonucleotide pairs of a given probe (AvgDiff value). The fold changes and directions were calculated for selected genes, from the differences of the AvgDiff values between controls and treated.
To identify genes that were impacted by pasireotide, the dataset was initially filtered to exclude in a first wave of analysis, genes whose values were systematically in the lower expression ranges where the experimental noise is high (at least 80 in a number of experiments corresponding to the smallest number of replicas of any experimental point). In a second round of selection a threshold p-value of 0.05 (based on a t-test) identified differences between treated and control based on a two component error model (Global Error Model) and, whenever possible, with a stepdown correction for multi-hypothesis testing (Benjamini and Hochberg false discovery rate). […]

[1] = ↑ increase, treated vs controls
[2] = ↓ decrease, treated vs controls

## NCCCCC1NC(=O)C(Cc2c[nH]c3ccccc23)NC(=O)C(c2ccccc2)NC(=O)C2CC(OC(=O)NCCN)CN2C(=O)C(Cc2ccccc2)NC(=O)C(Cc2ccc(OCc3ccccc3)cc2)NC1=O (stereo not drawn) [Pasireotide, cyclo[4-(NH2—C2H4—NH—CO—O)Pro-Phg-DTrp-Lys-Tyr(4-Bzl)-Phe]] (cyclo(F[Hyp]([CO-Ethylenediamine])[Phg]WKY(Bn)); configuration not given here)
0.1 mg/animal/14day
  GR expression level, AvgDiff (range): 80 (70 to 360)
  IGF-2 expression level, AvgDiff (range): 269 (224 to 291)
  IGFBP2 expression level, AvgDiff (range): 4,476 (3,191 to 5,422)
  Insulin promoter factor 1, homeodomain transcription factor expression level, AvgDiff (range): 42 (23 to 52)
[1]
  5-hydroxytryptamine (serotonin) receptor 6 RNA expression fold change: receptor 6 ↑ x2.5
  Adenylyl cyclase-associated protein RNA expression fold change: ↑ x1.5
  Arginine vasopressin receptor 2 RNA expression fold change: receptor 2 ↑ x2.5
  B lymphoid tyrosine kinase RNA expression fold change: ↑ x3.5
  Bone-derived GF RNA expression fold change: ↑ x3
  Bruton agamma globulinaemia tyrosine kinase RNA expression fold change: ↑ x1.5
  Butyrate response factor 2 (EGF-response factor 2) RNA expression fold change: factor 2) ↑ x2
  Calcium/calmodulin-dependent protein kinase kinase 2, β RNA expression fold change: ↑ x3
  Calmodulin 2 (phosphorylase kinase, δ) RNA expression fold change: kinase, δ) ↑ x2
  Cdk 5, regulatory subunit 1 RNA expression fold change: subunit 1 ↑ x2.5
  Cdki1A (p21/Cip1) RNA expression fold change: (p21/Cip1) ↑ x6
  Corticosteroid binding globulin precursor RNA expression fold change: precursor ↑ x2
  DAG kinase, α (80 kD) RNA expression fold change: (80 kD) ↑ x3
  DAG kinase, δ (130 kD) RNA expression fold change: ↑ x1.5
  Dopamine receptor D2 RNA expression fold change: receptor D2 ↑ x3.5
  Dopamine receptor D3 RNA expression fold change: receptor D3 ↑ x2
  EGFR (avian erythroblastic leukaemia viral (v-erb-b) oncogene homolog) RNA expression fold change: homolog) ↑ x2
  FGFR2 (bacteria-expressed kinase, keratinocyte growth factor receptor, craniofacial dysplasia) RNA expression fold change: dysplasia) ↑ x2
  Fas-activated serine/threonine kinase RNA expression fold change: kinase ↑ x1.5
  GABA (A) receptor, γ2 precursor RNA expression fold change: precursor ↑ x4
  GABA(A) receptor-associated protein RNA expression fold change: ↑ x1.5
  GCSF RNA expression fold change: GCSF ↑ x3.5
  Glucacon receptor RNA expression fold change: receptor ↑ x5
  Glutamate receptor, metabotropic 4 RNA expression fold change: ↑ x1.5
  Growth differentiation factor 1 RNA expression fold change: factor 1 ↑ x3
  IFN regulatory factor 5 RNA expression fold change: factor 5 ↑ x2.5
  IFN-induced leucine zipper protein RNA expression fold change: ↑ x1.5
  IFN-inducible RNA-dependent protein kinase RNA expression fold change: kinase ↑ x4
  IFNγ responsive transcript RNA expression fold change: transcript ↑ x1.5
  IGFBP2 RNA expression fold change: IGFBP2 ↑ x2
  IL2 R, γ chain, precursor RNA expression fold change: precursor ↑ x2.5
  IP 5-phosphatase RNA expression fold change: phosphatase ↑ x2
  Natriuretic peptide receptor A/guanylate cyclase A (atrionatriuretic peptide receptor A) RNA expression fold change: A) ↑ x6
  Nck, Ash and PLC γ binding protein NAP4 RNA expression fold change: ↑ x3.5
  PDGF, α polypeptide RNA expression fold change: polypeptide ↑ x1.5
  PDGFR, α polypeptide RNA expression fold change: polypeptide ↑ x2
  PI transfer protein RNA expression fold change: protein ↑ x3.5
  PKC substrate 80K-H RNA expression fold change: 80K-H ↑ x1.5
  PLA2, group IIA (platelets, synovial fluid) RNA expression fold change: fluid) ↑ x5.5
  PLC, γ 1 (formerly subtype 148) RNA expression fold change: 148) ↑ x2
  Rb binding protein RNA expression fold change: protein ↑ x2.5
  Rb-like 2 (p130) RNA expression fold change: (p130)↑ x3
  Receptor (calcitonin) activity modifying protein 1 precursor RNA expression fold change: 1 precursor ↑ x1.5
  Solute carrier family 9 (sodium/hydrogen exchanger), isoform 3 regulatory factor 1 RNA expression fold change: ↑ x11.5
  Solute carrier family 11 (Na+/phosphate symporters), member 1 RNA expression fold change: member 1 ↑ x2.5
  TGFβ activated kinase-binding protein 1 RNA expression fold change: protein 1 ↑ x2.5
  THR interacting protein 15 RNA expression fold change: protein 15 ↑ x1.5
  THR sulfo transferase RNA expression fold change: transferase ↑ x2.5
  TNF (ligand) superfamily, member 10 RNA expression fold change: 10 ↑ x1.5
  δ sleep inducing peptide, immunoreactor RNA expression fold change: ↑ x2.5
[2]
  1-PI-4-phosphate 5-kinase isoform C RNA expression fold change: ↓ x2
  ATPase, H+/K+ exchanging, beta polypeptide RNA expression fold change: polypeptide ↓ x2
  BCL2-like 1 RNA expression fold change: ↓ x3.5
  Ca++ channel, voltage-dependent, P/Q type, alpha 1A subunit RNA expression fold change: subunit ↓ x2.5
  Cdk like-2 RNA expression fold change: Cdk like-2 ↓ x2
  Cdki 2D (p19, inhibits CDK4) RNA expression fold change: ↓ x2.5
  Death-associated protein 6 RNA expression fold change: ↓ x2.5
  EGF (β-urogastrone) RNA expression fold change: ↓ x2.5
  EGF-like repeats and discoidin I-like domains 3 RNA expression fold change: domains 3 ↓ x1.5
  Fms-related tyrosine kinase 1(VEGF/vascular permeability factor receptor) RNA expression fold change: receptor) ↓ x1.5
  GFR-bound protein 2 RNA expression fold change: protein 2 ↓ x2.5
  Glycosylphosphatidylinositol specific phospholipase D1 RNA expression fold change: ↓ x1.5
  IFN-related developmental regulator 2 RNA expression fold change: regulator 2 ↓ x1.5
  IFN-stimulated protein, 15 kDa RNA expression fold change: protein, 15 kDa ↓ x2
  IGF-2 RNA expression fold change: IGF-2 ↓ x2.5
  Insulin promoter factor 1, homeodomain transcription factor RNA expression fold change: ↓ x1.5
  PI transfer protein, β RNA expression fold change: protein, β ↓ x1.5
  PKC, ι RNA expression fold change: PKC, ι ↓ x1.5
  Rb 1 (including osteosarcoma) RNA expression fold change: ↓ x2
  TGF, β1 RNA expression fold change: TGF, β1 ↓ x1.5
  TGFβR III (betaglycan, 300 kδ) RNA expression fold change: 300 kδ) ↓ x2
  TNF-α converting enzyme RNA expression fold change: enzyme ↓ x2
